Tests used:
[1] = tested on: Colletotrichum gloeosporioides; settings: in vivo; cited from earlier work
[2] = tested on: Rhizoctonia; experiment: Viability of Rhizoctonia propagules on treated potato tubers in storage
Experimental: (§1) The efficacy of combinations of essential oils and potassium salt of phosphonic acid (potassium sesquiphosphite) to reduce the viability of fungal infection and diseases in potatoes during storage was measured in the following manner: the tubers were collected. 500 tubers were selected for their average infection of Rhizoctonia (variety Nicola Bio); Helminthosporium solani (variety Vivaldi traditional). The tubers were incubated at 15° C. for 45 days to allow the development of symptoms. 50 tubers (6 to 8 kg) were treated with a composition of essential oil (at 570 ppm or 1140 ppm), a composition of potassium salt of phosphonic acid at 0.6% or 1.2% by weight, as well as mixtures thereof. The phosphonic acid solution was sprayed at ambient temperature at an application rate of 75 mL per 5 kg. 50 mL of clove oil solution were sprayed out. The tubers were incubated at 8° C. for 45 days after treatment. The viability of colonies of Rhizoctonia and Helminthosporium was monitored.

[3] = tested on: Helminthosporium solani; experiment: Viability of Helminthosporium solani propagules on treated potato tubers in storage
Experimental: as §1

[4] = tested on: Penicilliums; settings: ambient temperature, treatment doses close to 10,000 ppm, oranges; cited from earlier work
[5] = tested on: Colletotrichum gloeosporioides; experiment: Treatment of olive trees affected by Colletotrichum gloeosporioides; format: in vivo; settings: for Percentage of olive leaves with symptoms of infection: dose 0.5% of potassium sesquiphosphite composition alone
Source text: A composition at about 20% of clove oil and a composition of the potassium salt of phosphonic acid were separately applied at doses of 0.3% and 0.5% respectively, as well as in combination with the same doses.

[6] = tested on: Geotrichum sp; experiment: Efficacy against Geotrichum sp on inoculated citrus (mandarin ortanique); format: in vivo; settings: K-Phos 500 ml/100 L (375 g/100 L potassium sesquiphosphite), spraying at ambient temperature
Experimental: The fruits were inoculated with a suspension of spores of Geotrichum sp after perforation of the skin. […] When clove oil alone was applied, the fruits were immersed for 2 min in a bath at a temperature of between 49° C. and 51° C. The fruits were stored. At various time intervals, the fruits were individually inspected for signs of phytotoxicity and efficacy by determining the percentage of the surface of the skin affected and the stage of development of the disease in the controls. The variables studied were the incidence (percentage of fruit affected) and severity of the attack (percentage of the fruit surface affected by the disease).

[7] = 570 ppm oil/terpene alone, potato tubers sprayed, 45 days at 8° C. after treatment
[8] = 0.6% potassium sesquiphosphite alone, potato tubers sprayed at ambient temperature, 45 days at 8° C. after treatment
[9] = 1.2% potassium sesquiphosphite alone, potato tubers sprayed at ambient temperature, 45 days at 8° C. after treatment

**Q.** With `O=C1C2CC=CCC2C(=O)N1SC(Cl)(Cl)Cl` (stereo not drawn) [Captan] as the compound, how does the “activity in control of the disease in olive orchards” value [1] read?
**A.** low level of activity

**Q.** Which “Viability of Propagules (%) Rhizoctonia” value [2, 7] does the source give for `Cc1ccc(C(C)C)cc1O` [carvacrol] here?
**A.** 52%

**Q.** What about the “Viability of Propagules (%) Helminthosporium solani” value [3, 7] of the same compound?
**A.** 50%

**Q.** For `CC(C)=CCC/C(C)=C/CO` [geraniol], which “Viability of Propagules (%) Rhizoctonia” value [2, 7] is on record?
**A.** 83%

**Q.** And the “Viability of Propagules (%) Helminthosporium solani” value [3, 7]?
**A.** 38%

**Q.** With `O=[PH](O)O` [phosphonic acid, Phosphonic acid] as the compound, how does the “control of the growth of Rhizoctonia” value ([2]; applied alone) read?
**A.** altogether insufficient degree

**Q.** What about the “control of the growth of Helminthosporium solani” value ([3]; applied alone) of the same compound?
**A.** altogether insufficient degree

**Q.** And the “activity on Penicilliums” value [4]?
**A.** very weak

**Q.** What about the “activity compared to the control (olive leaf infection)” value ([5]; applied alone) of the same compound?
**A.** low level of activity

**Q.** Which “Viability of Propagules (%) Rhizoctonia” value ([2]; Rhizoctonia, in vivo, 45 days, 570 ppm) does the source give for `Cc1ccc(C(C)C)c(O)c1` [thymol] here?
**A.** 75%

**Q.** What about the “Viability of Propagules (%) Helminthosporium solani” value ([3]; Helminthosporium solani, in vivo, 45 days, 570 ppm) of the same compound?
**A.** 45%

**Q.** For potassium sesquiphosphite, which “Viability of Propagules (%) Rhizoctonia” value [2, 8] is on record?
**A.** 60%

**Q.** And the “Viability of Propagules (%) Rhizoctonia” value [2, 9]?
**A.** 22%

**Q.** And the “Percentage of fruit affected after 14 days, value in parentheses (activity compared to the control)” value [6]?
**A.** no activity

**Q.** What about the “Viability of Propagules (%) Helminthosporium solani” value [3, 8] of the same compound?
**A.** 30%

**Q.** What about the “Viability of Propagules (%) Helminthosporium solani” value [3, 9] of the same compound?
**A.** 6%

**Q.** What about the “Percentage of olive leaves with symptoms of infection” value ([5]; t1 + 90 days) of the same compound?
**A.** 50%

**Q.** What about the “Percentage of olive leaves with symptoms of infection” value ([5]; t1) of the same compound?
**A.** 41%
